“Also recorded” adds a separate entry of the source.
Assays:
Kasumi-1 = experiment: Cytotoxicity, annexin V/7-AAD viability by flow cytometry, Kasumi-1; format: cell-based, human; settings: Kasumi-1, 48 hours, drug range tested 1.25-160 μM
Procedure: (§1) In order to assess the structure-activity relationship of DHL and its derivatives, DHL and its derivatives were evaluated against eight human leukemia cell lines. Cell lines were cultured in Iscove's Modified Dulbecco's Medium (IMDM) supplemented with 10%˜20% fetal bovine serum (FBS) according to culture conditions indicated by ATCC and 1% penicillin/streptomycin (Pen/Strep) at 37° C. and 5% CO2. The cells were seeded into 96-well plates and kept at a concentration of 0.5 million cells per mL. The samples were treated with DHL, Leucodine, DHL-Morpholine, DHL-Proline, DHL-Piperidine, and PTL at varying concentrations in triplicates. Cell viability was determined after incubating for 48 hours. The cells were stained with annexin V-fluorescein isothiocyanate or phycoeritrine (FITC/PE) and 7-aminoactinomycin (7-AAD) to detect phosphatidylserine exposition and cell permeability, respectively. At least 50,000 events were recorded per condition on either an LSR-II or LSR-Fortessa flow cytometer (BD Biosciences). Data analysis was conducted using FlowJo 9.6 software for Mac OS X (TreeStar). Cells that were negative for annexin V and 7-AAD were scored as viable.

MOLM-13 = experiment: Cytotoxicity, annexin V/7-AAD viability by flow cytometry, MOLM-13; format: cell-based, human; settings: MOLM-13, 48 hours, drug range tested 1.25-160 μM
Procedure: as §1

MV4-11 = experiment: Cytotoxicity, annexin V/7-AAD viability by flow cytometry, MV4-11; format: cell-based, human; settings: MV4-11, 48 hours, drug range tested 1.25-160 μM
Procedure: as §1

CCRF-CEM = experiment: Single dose tumor cell growth inhibition, Leukemia CCRF-CEM; format: cell-based; settings: single dose 10 μM
From the text: (§2) DHL is cytotoxic to various leukemia, colon cancer, CNS cancer and prostate cancer cell lines.

RPMI-8226 = experiment: Single dose tumor cell growth inhibition, Leukemia RPMI-8226; format: cell-based; settings: RPMI-8226, single dose 10 μM
From the text: as §2

SW-620 = experiment: Single dose tumor cell growth inhibition, Colon Cancer SW-620; format: cell-based, human; settings: SW-620, single dose 10 μM
From the text: as §2

DU-145 = experiment: Single dose tumor cell growth inhibition, Prostate Cancer DU-145; format: cell-based, human; settings: DU-145, single dose 10 μM
From the text: as §2

HMOX-1, HSPA1A, HSPH1 = experiment: Real-time PCR gene expression in KG-1 and MOLM-13 cells; format: cell-based; settings: 20 μM, 6 hours
From the text: FIG. 1A, FIG. 1B, FIG. 1C, FIG. 1D and FIG. 1E present the changes in gene expression in KG1 or MOLM13 cells after exposure to dehydroleucodine, parthenolide, or derivatives thereof. Plotted is the fold change in expression relative to control after treatment with parthenolide-tyramine (PTL-Tyr), parthenolide (PTL), leucodine (Leuco), dehydroleucodine (DHL), dehydroleucodine-tyramine (DHL-Tyr), or dehydroleucodine-morpholine (DHL-Morp). […] FIG. 1B plots the expression of HSPA1A in KG1 cells. FIG. 1C presents the expression of HSPH1 in KG1 cells. […] FIG. 1E presents the expression of HSPH1 in MOLM13 cells. Error bars represent S.E.M.
MOLM-13 and KG-1 cells were seeded at 0.5 million cells per ml. Cells were treated for 6 hours with 20 μM of parthenolide (PTL), dehydroleucodine (DHL), leucodine (Leu), parthenolide-tyramine (PTL-Tyr), dehydroleucodine-tyramine (DHL-Tyr) and dehydroleucodine-Morpholine (DHL-Morp), and then collected. Total RNA was extracted using the Qiashredder and Qiagen Rneasy mini kits (Quiagen) according to the manufacturer's instructions. Real-time PCR was performed using the Taqman RNA to CT 1-Step kit (Applied Biosystems). […] Single-plex real-time PCR was performed in triplicates in a StepOne plus RealTime PCR system (Applied Biosystems) and analyzed with the StepOne Software. Fold change was calculated using the 2-DDCT method.

Log P octanol/water = format: physicochemical; settings: experimentally determined
[1] = tested on: eight human leukemia cell lines
Procedure: Cell lines were cultured in Iscove's Modified Dulbecco's Medium (IMDM) supplemented with 10%˜20% fetal bovine serum (FBS) according to culture conditions indicated by ATCC and 1% penicillin/streptomycin (Pen/Strep) at 37° C. and 5% CO2. The cells were seeded into 96-well plates and kept at a concentration of 0.5 million cells per mL. […] Cell viability was determined after incubating for 48 hours. The cells were stained with annexin V-fluorescein isothiocyanate or phycoeritrine (FITC/PE) and 7-aminoactinomycin (7-AAD) to detect phosphatidylserine exposition and cell permeability, respectively. At least 50,000 events were recorded per condition on either an LSR-II or LSR-Fortessa flow cytometer (BD Biosciences). Data analysis was conducted using FlowJo 9.6 software for Mac OS X (TreeStar). Cells that were negative for annexin V and 7-AAD were scored as viable.

Compound: C=C1C(=O)O[C@@H]2[C@H]3C(C)=CC(=O)C3=C(C)CC[C@@H]12 [DHL, dehydroleucodine]
- LD50 (Kasumi-1): 12.92 µM
- LD50 (MOLM-13): 12.59 µM
- LD50 (MV4-11): 5.02 µM
- Percent inhibition (CCRF-CEM): 44.9%
- Percent inhibition (RPMI-8226): 31.7%
- Percent inhibition (SW-620): 30.0%
- Percent inhibition (DU-145): 44.0%
- expression of HMOX-1, HSPA1A and HSPH1 (HMOX-1, HSPA1A, HSPH1): activated the expression of all three target genes in both cell lines; also recorded: more potent than PTL
- Log P octanol/water (Log P octanol/water): 2.33 (±0.16)
- anti-leukemic activity / in vitro cytotoxicity [1]: more potent anti-leukemic activity than PTL in most samples
- LD50 values in the various leukemic cell lines tested ([1]; range over the AML cell lines, 48 hours of treatment): 5.02 to 18.95 µM
